Measurements published in the supplement of paper PMC10307832.

Legend:
Experiment in all cases: relative viability (nuclei count vs DMSO), 5 days (fraction); higher = more cells survive
[1] = test system: LC-2-ad
Method in brief: (§1)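 Five library-drug doses in √10 steps were combined with a fixed anchor-drug dose, or a single drug was given alone, by pin tool to lung cancer cell lines in 1536-well plates the day after seeding. Nuclei were stained and counted after 5 days. Relative viability is the nuclei count in treated wells over that in vehicle wells, taken as the median of duplicate plates.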

[2] = test system: NCI-H596
Method in brief: as §1

[3] = test system: NCI-H2228
Method in brief: as §1

[4] = test system: SW 1573
Method in brief: as §1

[5] = test system: LK-2
Method in brief: as §1

[6] = test system: NCI-H1650
Method in brief: as §1

[7] = test system: 201T
Method in brief: as §1

[8] = test system: NCI-H23
Method in brief: as §1

[9] = test system: PC-14
Method in brief: as §1

[10] = test system: LU99A
Method in brief: as §1

[11] = test system: NCI-H460
Method in brief: as §1

[12] = test system: NCI-H2347
Method in brief: as §1

[13] = test system: H3255
Method in brief: as §1

[14] = test system: A-427
Method in brief: as §1

[15] = test system: LCLC-97TM1
Method in brief: as §1

[16] = test system: HCC-44
Method in brief: as §1

[17] = test system: LCLC-103H
Method in brief: as §1

[18] = test system: NCI-H1563
Method in brief: as §1

[19] = test system: NCI-H727
Method in brief: as §1

[20] = test system: COR-L23
Method in brief: as §1

`COc1cc2nccc(Oc3ccc(NC(=O)Nc4cc(C)on4)c(Cl)c3)c2cc1OC` [Tivozanib] + C[C@@H](Oc1cc(-c2cnn(C3CCNCC3)c2)cnc1N)c1c(Cl)ccc(F)c1Cl [Crizotinib] (partner 1 µM) was tested, and the relative viability ([1]; first compound 0.005 µM) was 0.413, the relative viability ([1]; first compound 0.01581 µM) was 0.426 and the relative viability ([1]; first compound 0.05 µM) was 0.522. For the same compound, the relative viability ([1]; first compound 0.1581 µM) was 0.468, the relative viability ([1]; first compound 0.5 µM) was 0.347 and the relative viability ([2]; first compound 0.005 µM) was 0.947. The relative viability ([2]; first compound 0.01581 µM) was 0.903, the relative viability ([2]; first compound 0.05 µM) was 0.961 and the relative viability ([2]; first compound 0.1581 µM) was 0.861. It also gave a relative viability ([2]; first compound 0.5 µM) of 0.966, a relative viability ([3]; first compound 0.005 µM) of 0.439 and a relative viability ([3]; first compound 0.01581 µM) of 0.421. For the same compound, the relative viability ([3]; first compound 0.05 µM) was 0.491, the relative viability ([3]; first compound 0.1581 µM) was 0.453 and the relative viability ([3]; first compound 0.5 µM) was 0.605. For the same compound, the relative viability ([4]; first compound 0.005 µM) was 0.901, the relative viability ([4]; first compound 0.01581 µM) was 0.765 and the relative viability ([4]; first compound 0.05 µM) was 0.78. It also gave a relative viability ([4]; first compound 0.1581 µM) of 0.749, a relative viability ([4]; first compound 0.5 µM) of 0.829 and a relative viability ([5]; first compound 0.005 µM) of 0.253. The relative viability ([5]; first compound 0.01581 µM) was 0.264, the relative viability ([5]; first compound 0.05 µM) was 0.221 and the relative viability ([5]; first compound 0.1581 µM) was 0.198. For the same compound, the relative viability ([5]; first compound 0.5 µM) was 0.22, the relative viability ([6]; first compound 0.005 µM) was 0.919 and the relative viability ([6]; first compound 0.01581 µM) was 1.13. The relative viability ([6]; first compound 0.05 µM) was 0.952, the relative viability ([6]; first compound 0.1581 µM) was 1.09 and the relative viability ([6]; first compound 0.5 µM) was 0.866. For the same compound, the relative viability ([7]; first compound 0.005 µM) was 0.981, the relative viability ([7]; first compound 0.01581 µM) was 1.04 and the relative viability ([7]; first compound 0.05 µM) was 1.06. For the same compound, the relative viability ([7]; first compound 0.1581 µM) was 1, the relative viability ([7]; first compound 0.5 µM) was 1.04 and the relative viability ([8]; first compound 0.005 µM) was 0.544. For the same compound, the relative viability ([8]; first compound 0.01581 µM) was 0.541, the relative viability ([8]; first compound 0.05 µM) was 0.474 and the relative viability ([8]; first compound 0.1581 µM) was 0.461. For the same compound, the relative viability ([8]; first compound 0.5 µM) was 0.459, the relative viability ([9]; first compound 0.005 µM) was 0.796 and the relative viability ([9]; first compound 0.01581 µM) was 0.879. It also gave a relative viability ([9]; first compound 0.05 µM) of 0.961, a relative viability ([9]; first compound 0.1581 µM) of 0.879 and a relative viability ([9]; first compound 0.5 µM) of 0.885. The relative viability ([10]; first compound 0.005 µM) was 0.549, the relative viability ([10]; first compound 0.01581 µM) was 0.537 and the relative viability ([10]; first compound 0.05 µM) was 0.555. For the same compound, the relative viability ([10]; first compound 0.5 µM) was 0.482, the relative viability ([11]; first compound 0.005 µM) was 0.889 and the relative viability ([11]; first compound 0.01581 µM) was 1.09. The relative viability ([11]; first compound 0.05 µM) was 0.96, the relative viability ([11]; first compound 0.1581 µM) was 0.935 and the relative viability ([11]; first compound 0.5 µM) was 0.897. The relative viability ([12]; first compound 0.005 µM) was 0.578, the relative viability ([12]; first compound 0.01581 µM) was 0.679 and the relative viability ([12]; first compound 0.05 µM) was 0.673. For the same compound, the relative viability ([12]; first compound 0.1581 µM) was 0.685, the relative viability ([12]; first compound 0.5 µM) was 0.605 and the relative viability ([13]; first compound 0.005 µM) was 0.799. For the same compound, the relative viability ([13]; first compound 0.01581 µM) was 0.906, the relative viability ([13]; first compound 0.05 µM) was 0.911 and the relative viability ([13]; first compound 0.1581 µM) was 0.777. For the same compound, the relative viability ([13]; first compound 0.5 µM) was 0.8, the relative viability ([14]; first compound 0.005 µM) was 0.82 and the relative viability ([14]; first compound 0.01581 µM) was 0.84. It also gave a relative viability ([14]; first compound 0.05 µM) of 0.986, a relative viability ([14]; first compound 0.1581 µM) of 0.818 and a relative viability ([14]; first compound 0.5 µM) of 0.827. It also gave a relative viability ([15]; first compound 0.005 µM) of 0.224, a relative viability ([15]; first compound 0.01581 µM) of 0.302 and a relative viability ([15]; first compound 0.1581 µM) of 0.365. For the same compound, the relative viability ([15]; first compound 0.5 µM) was 0.46, the relative viability ([16]; first compound 0.005 µM) was 0.743 and the relative viability ([16]; first compound 0.01581 µM) was 0.787. The relative viability ([16]; first compound 0.05 µM) was 0.82, the relative viability ([16]; first compound 0.1581 µM) was 0.78 and the relative viability ([16]; first compound 0.5 µM) was 0.811. It also gave a relative viability ([17]; first compound 0.005 µM) of 1.04, a relative viability ([17]; first compound 0.01581 µM) of 0.952 and a relative viability ([17]; first compound 0.05 µM) of 1.04. It also gave a relative viability ([17]; first compound 0.1581 µM) of 1.03, a relative viability ([17]; first compound 0.5 µM) of 1.06 and a relative viability ([18]; first compound 0.005 µM) of 0.811. The relative viability ([18]; first compound 0.01581 µM) was 0.857, the relative viability ([18]; first compound 0.05 µM) was 0.81 and the relative viability ([18]; first compound 0.1581 µM) was 0.858. The relative viability ([18]; first compound 0.5 µM) was 0.919, the relative viability ([19]; first compound 0.005 µM) was 0.72 and the relative viability ([19]; first compound 0.01581 µM) was 0.843. It also gave a relative viability ([19]; first compound 0.05 µM) of 0.833, a relative viability ([19]; first compound 0.5 µM) of 0.869 and a relative viability ([20]; first compound 0.005 µM) of 0.622. For the same compound, the relative viability ([20]; first compound 0.01581 µM) was 0.615, the relative viability ([20]; first compound 0.05 µM) was 0.659 and the relative viability ([20]; first compound 0.1581 µM) was 0.643. It also gave a relative viability ([20]; first compound 0.5 µM) of 0.543.
